Source: patent US6541517B1, “Treatment of skin disorders” (priority 1999, dated 2003)

Assays:
[1] = water, alcohol, ether and chloroform; cited from earlier work
[2] = tested on: patients who presented with psoriatic lesions; test: Topical treatment of psoriasis in outpatients; assay type: in vivo, human; conditions: applied as a topical, episodic treatment for psoriasis
Procedure: Eight patients who presented with psoriatic lesions were treated with the ointment of Example 1 on an outpatient basis. The ointment of Example 1 was applied to the psoriatic lesions up to four times per day.

[3] = Federal Register, vol. 47, 12553 (Mar. 23, 1982); cited from earlier work

SMILES | miscibility [1] | effect on psoriatic lesions [2] | safety for topical use [3]
CC(=O)OCC(O)CO (centres unmarked) [monacetin, glycerol monoacetate] | miscible in water, alcohol, ether and chloroform |  | 
CC(=O)OCC(CO)OC(C)=O (centres unmarked) [diacetin, glycerol diacetate] | miscible in water, alcohol, ether and chloroform |  | 
CC(=O)OCC(COC(C)=O)OC(C)=O [Triacetin, 1,2,3-propanetriol triacetate] | miscible in water, alcohol, ether and chloroform | improve psoriatic lesions | safe for topical use
